This passage reports IC50 results from US9499534B2, “Thiazole-substituted aminopyrimidines as spleen tyrosine kinase inhibitors” (priority 2013, dated 2016).

As a reminder, the IC50 is the concentration needed to halve the response being measured.

This test addresses recombinant human GST-SYK (Homo sapiens (Human), UniProt P43405). Briefly: Homogeneous Time-Resolved Fluorescence (HTRF) Assay for the Recombinant Human Syk Enzyme. Type of test: biochemical. The note with it: GST-SYK 5 pM, ATP 25 μM, biotinylated substrate peptide 250 nM, HTRF signal. How it is done: Homogeneous Time-Resolved Fluorescence (HTRF) Assay for the Recombinant Human Syk Enzyme
A recombinant GST-hSYK fusion protein was used to measure potency of compounds to inhibit human Syk activity. The recombinant human GST-SYK (Carna Biosciences #08-176) (5 pM final concentration) was incubated with various concentrations of the inhibitor diluted in DMSO (0.1% final concentration) for 10 minutes at room temperature in 15 mM Tris-HCl (pH 7.5), 0.01% tween 20, 2 mM DTT in 384 well plate format. To initiate the reaction the biotinylated substrate peptide (250 nM final concentration) that contains the phosphorylation site for Syk was added with magnesium (5 mM final concentration) and ATP (25 μM final concentration). Final volume of the reaction was 10 μL. Phosphorylation of the peptide was allowed to proceed for 45′ at room temperature. To quench the reaction and detect the phosphorylated product, 2 nM of a Europium-anti-phosphotyrosine antibody (Perkin Elmer #AD0161) and 70 nM SA-APC (Perkin-Elmer #CR130-100) were added together in 15 mM Tris pH 7.5, 40 mM EDTA, 0.01% tween 20. Final volume of the quenching solution was 10 μL.
The resulting HTRF signal was measured after 30 minutes on an EnVision (Perkin-Elmer) reader using a time-resolved fluorescence protocol. Table A below lists activities as IC50 values (nM) for representative compounds of the invention.
A general note: TR-FRET usually uses a lanthanide donor and a delayed reading to cut background.

On to `CC1(C)C[C@](O)(c2ncc(-c3cc(Nc4nccc(C(F)(F)F)n4)cc(-c4cn[nH]c4)c3)s2)CC[C@H]1C(=O)O` (single isomer, unassigned) [Example 2.10, (1R,4S or 1S,4R)-4-hydroxy-2,2-dimethyl-4-{5-[3-(1H-pyrazol-4-yl)-5-{[4-(trifluoromethyl)pyrimidin-2-yl]amino}phenyl]-1,3-thiazol-2-yl}cyclohexanecarboxylic acid], for which the IC50 was 2.38 nM.

On to `CC1(C)C[C@](O)(c2ncc(-c3cc(Nc4nccc(C(F)(F)F)n4)cc(-c4cc[nH]n4)c3)s2)CC[C@H]1C(=O)O` (single isomer, unassigned) [Example 2.11, (1R,4S or 1S,4R)-4-hydroxy-2,2-dimethyl-4-{5-[3-(1H-pyrazol-3-yl)-5-{[4-(trifluoromethyl)pyrimidin-2-yl]amino}phenyl]-1,3-thiazol-2-yl}cyclohexanecarboxylic acid], for which the IC50 turned out to be 1.11 nM.

Regarding `COc1ccc(-c2cc(Nc3nccc(C(F)(F)F)n3)cc(-c3cnc([C@]4(O)CC[C@@H](C(=O)O)C(C)(C)C4)s3)c2)cc1F` (single isomer, unassigned) [Example 2.12, (1R,4S or 1S,4R)-4-[5-(3′-fluoro-4′-methoxy-5-{[4-(trifluoromethyl)pyrimidin-2-yl]amino}biphenyl-3-yl)-1,3-thiazol-2-yl]-4-hydroxy-2,2-dimethylcyclohexanecarboxylic acid], the IC50 turned out to be 35.3 nM.

Turning to `CC1(C)C[C@](O)(c2ncc(-c3cc(Nc4nccc(C(F)(F)F)n4)cc(-c4cccc(F)c4F)c3)s2)CC[C@H]1C(=O)O` (single isomer, unassigned) [Example 2.14, (1R,4S or 1S,4R)-4-[5-(2′,3′-difluoro-5-{[4-(trifluoromethyl)pyrimidin-2-yl]amino}biphenyl-3-yl)-1,3-thiazol-2-yl]-4-hydroxy-2,2-dimethylcyclohexanecarboxylic acid], the IC50 was found to be 12.9 nM.

`CC1(C)C[C@](O)(c2ncc(-c3cc(Nc4nccc(C(F)(F)F)n4)cc(-c4cncc(F)c4)c3)s2)CC[C@H]1C(=O)O` (single isomer, unassigned) [Example 2.15, (1R,4S or 1S,4R)-4-{5-[3-(5-fluoropyridin-3-yl)-5-{[4-(trifluoromethyl)pyrimidin-2-yl]amino}phenyl]-1,3-thiazol-2-yl}-4-hydroxy-2,2-dimethylcyclohexanecarboxylic acid]: the IC50 was 3.22 nM.

Turning to `Cc1cc(-c2cc(Nc3nccc(C(F)(F)F)n3)cc(-c3cnc([C@]4(O)CC[C@@H](C(=O)O)C(C)(C)C4)s3)c2)ccc1F` (single isomer, unassigned) [Example 2.16, (1R,4S or 1S,4R)-4-[5-(4′-fluoro-3′-methyl-5-{[4-(trifluoromethyl)pyrimidin-2-yl]amino}biphenyl-3-yl)-1,3-thiazol-2-yl]-4-hydroxy-2,2-dimethylcyclohexanecarboxylic acid], the IC50 stood at 153 nM.

Consider `C[S+]([O-])c1ccccc1-c1cc(Nc2nccc(C(F)(F)F)n2)cc(-c2cnc([C@]3(O)CC[C@@H](C(=O)O)C(C)(C)C3)s2)c1` (single isomer, unassigned) [Example 2.17, (1R,4S or 1S,4R)-4-hydroxy-2,2-dimethyl-4-{5-[2′-(methylsulfinyl)-5-{[4-(trifluoromethyl)pyrimidin-2-yl]amino}biphenyl-3-yl]-1,3-thiazol-2-yl}cyclohexanecarboxylic acid], for which the IC50 was 15.3 nM.

With `CC1(C)C[C@](O)(c2ncc(-c3cc(Nc4nccc(C(F)(F)F)n4)cc(-c4ccccc4Cl)c3)s2)CC[C@H]1C(=O)O` (single isomer, unassigned) [Example 2.18, (1R,4S or 1S,4R)-4-[5-(2′-chloro-5-{[4-(trifluoromethyl)pyrimidin-2-yl]amino}biphenyl-3-yl)-1,3-thiazol-2-yl]-4-hydroxy-2,2-dimethylcyclohexanecarboxylic acid], the half-maximal inhibitory concentration (IC50) came out at 37.1 nM.

As for `CC1(C)C[C@](O)(c2ncc(-c3cc(Nc4nccc(C(F)(F)F)n4)cc(-c4ccc(N)nc4)c3)s2)CC[C@H]1C(=O)O` (single isomer, unassigned) [Example 2.19, (1R,4S or 1S,4R)-4-{5-[3-(6-aminopyridin-3-yl)-5-{[4-(trifluoromethyl)pyrimidin-2-yl]amino}phenyl]-1,3-thiazol-2-yl}-4-hydroxy-2,2-dimethylcyclohexanecarboxylic acid], the IC50 came out at 1.29 nM.

Consider `Cc1ccccc1-c1cc(Nc2nccc(C(F)(F)F)n2)cc(-c2cnc([C@]3(O)CC[C@@H](C(=O)O)C(C)(C)C3)s2)c1` (single isomer, unassigned) [Example 2.20, (1R,4S or 1S,4R)-4-hydroxy-2,2-dimethyl-4-[5-(2′-methyl-5-{[4-(trifluoromethyl)pyrimidin-2-yl]amino}biphenyl-3-yl)-1,3-thiazol-2-yl]cyclohexanecarboxylic acid], for which the IC50 worked out at 70.4 nM.

Turning to `CC1(C)C[C@](O)(c2ncc(-c3cc(Nc4nccc(C(F)(F)F)n4)cc(C4=CCCCC4)c3)s2)CC[C@H]1C(=O)O` (single isomer, unassigned) [Example 2.21, (1R,4S or 1S,4R)-4-[5-(3-cyclohex-1-en-1-yl-5-{[4-(trifluoromethyl)pyrimidin-2-yl]amino}phenyl)-1,3-thiazol-2-yl]-4-hydroxy-2,2-dimethylcyclohexanecarboxylic acid], the IC50 came out at 17.6 nM.

Take `Cc1ccc(F)c(-c2cc(Nc3nccc(C(F)(F)F)n3)cc(-c3cnc([C@]4(O)CC[C@@H](C(=O)O)C(C)(C)C4)s3)c2)c1` (single isomer, unassigned) [Example 2.22, (1R,4S or 1S,4R)-4-[5-(2′-fluoro-5′-methyl-5{[4-(trifluoromethyl)pyrimidin-2 yl]amino}biphenyl-3-yl)-1,3-thiazol-2-yl]-4-hydroxy-2,2-dimethylcyclohexanecarboxylic acid]: the half-maximal inhibitory concentration (IC50) is 46 nM.

Regarding `Cc1ccsc1-c1cc(Nc2nccc(C(F)(F)F)n2)cc(-c2cnc([C@]3(O)CC[C@@H](C(=O)O)C(C)(C)C3)s2)c1` (single isomer, unassigned) [Example 2.23, (1R,4S or 1S,4R)-4-hydroxy-2,2-dimethyl-4-{5-[3-(3-methylthiophen-2-yl)-5-{[4-(trifluoromethyl)pyrimidin-2-yl]amino}phenyl]-1,3-thiazol-2-yl}cyclohexanecarboxylic acid], the half-maximal inhibitory concentration (IC50) is 10.1 nM.

Regarding `Cc1cscc1-c1cc(Nc2nccc(C(F)(F)F)n2)cc(-c2cnc([C@]3(O)CC[C@@H](C(=O)O)C(C)(C)C3)s2)c1` (single isomer, unassigned) [Example 2.24, (1R,4S or 1S,4R)-4-hydroxy-2,2-dimethyl-4-{5-[3-(4-methylthiophen-3-yl)-5-{[4-(trifluoromethyl)pyrimidin-2-yl]amino}phenyl]-1,3-thiazol-2-yl}cyclohexanecarboxylic acid], the half-inhibitory concentration (IC50) is 24.6 nM.

Regarding `CC1(C)C[C@](O)(c2ncc(-c3cc(Nc4nccc(C(F)(F)F)n4)cc(-c4ccccc4F)c3)s2)CC[C@H]1C(=O)O` (single isomer, unassigned) [Example 2.25, (1R,4S or 1S,4R)-4-[5-(2′-fluoro-5-{[4-(trifluoromethyl)pyrimidin-2-yl]amino}biphenyl-3-yl)-1,3-thiazol-2-yl]-4-hydroxy-2,2-dimethylcyclohexanecarboxylic acid], the IC50 was determined as 35.2 nM.

On to `CC/C=C\c1cc(Nc2nccc(C(F)(F)F)n2)cc(-c2cnc([C@]3(O)CC[C@@H](C(=O)O)C(C)(C)C3)s2)c1` (single isomer, unassigned) [Example 2.26, (1R,4S or 1S,4R)-4-[5-(3-[(1Z)-but-1-en-1-yl]-5-{[4-(trifluoromethyl)pyrimidin-2-yl]amino}phenyl)-1,3-thiazol-2-yl]-4-hydroxy-2,2-dimethylcyclohexanecarboxylic acid], for which the half-inhibitory concentration (IC50) was 2.68 nM.

Take `CC1(C)C[C@](O)(c2ncc(-c3cc(/C=C\C4CC4)cc(Nc4nccc(C(F)(F)F)n4)c3)s2)CC[C@H]1C(=O)O` (single isomer, unassigned) [Example 2.27, (1R,4S or 1S,4R)-4-[5-(3-[(Z)-2-cyclopropylethenyl]-5-{[4-(trifluoromethyl)pyrimidin-2-yl]amino}phenyl)-1,3-thiazol-2-yl]-4-hydroxy-2,2-dimethylcyclohexanecarboxylic acid]: the IC50 came out at 4.06 nM.

Consider `C/C=C(\C)c1cc(Nc2nccc(C(F)(F)F)n2)cc(-c2cnc([C@]3(O)CC[C@@H](C(=O)O)C(C)(C)C3)s2)c1` (single isomer, unassigned) [Example 2.28, (1R,4S or 1S,4R)-4-hydroxy-2,2-dimethyl-4-[5-(3-[(1E)-1-methylprop-1-en-1-yl]-5-{[4-(trifluoromethyl)pyrimidin-2-yl]amino}phenyl)-1,3-thiazol-2-yl]cyclohexanecarboxylic acid], for which the IC50 is 2.75 nM.

With `CC(C)(C)/C=C\c1cc(Nc2nccc(C(F)(F)F)n2)cc(-c2cnc([C@]3(O)CC[C@@H](C(=O)O)C(C)(C)C3)s2)c1` (single isomer, unassigned) [Example 2.29, (1R,4S or 1S,4R)-4-[5-(3-[(1Z)-3,3-dimethylbut-1-en-1-yl]-5-{[4-(trifluoromethyl)pyrimidin-2-yl]amino}phenyl)-1,3-thiazol-2-yl]-4-hydroxy-2,2-dimethylcyclohexanecarboxylic acid], the IC50 stood at 16.8 nM.
